# Source: US20200318195A1, “Bivalent Nucleic Acid Ligands and Uses Therefor” (Carnegie Mellon University, priority 2017, published 2020)
# Tests used:
# R11C = assay: CD of ligand with mismatched R11C; type: binding; settings: 0.1x PBS; data not shown
# Source text: (§1) A series of model RNA targets were chosen for binding study (FIG. 11). The R11X series comprised 24 rCXG-repeats (FIG. 11 (A)), which, upon adopting a secondary hairpin structure, provided 11 binding sites for ligands (FIG. 11(B)). R11A contained the perfect-match (A-A), while R11U and R11C contained the respective U—U and C—C mismatches for ligand binding. R11G (X=G) was not ascertained since it has shown to be capable of forming G-quadruplex as well as hairpin structures, which could confound the interpretation of the experimental results. Single-stranded RNA targets, WS (Watson Strand) and CS (Crick Strand), with the LG2 binding-site underlined (FIG. 11 (C)), as well as double-stranded hairpin HP containing a single ligand binding-site (FIG. 11 (D)), were also examined. The samples were prepared by incubating the pre-annealed RNAs with respective ligands in 0.1× PBS buffer (1 mM NaPi, 13.7 mM NaCl, 0.27 mM KCl; pH 7.4) at 37° C. […]
# (§2) The samples were prepared in 0.1× PBS buffer. […] All steady-state fluorescence samples were prepared by mixing ligands with RNA at the indicated concentrations in 0.1× PBS buffer, and annealed by incubation at 90° C. for 5 min followed by a gradual cooling to 37° C. […] Steady-state fluorescence data were collected at 25° C. by Cary Eclipse Fluorescence Spectrometer. […]
# R11U [1] = assay: Steady-state fluorescent measurements of ligand with R11U; type: binding
# Experimental: (§3) FIG. 14. The effects of ligand orientation (LG2P), mismatched R11U and single-stranded targets (WS+CS). Inset: Fluorescent spectra of the corresponding samples after addition of 2.5 μM of pentamidine.
# (§4) To further corroborate the UV-Vis and CD findings, we measured the fluorescent signals of ligands with and without RNA targets following an excitation at 330 nm (λmax of E-base). We observed a significant fluorescent quenching of LG3 compared to that of LG1 and LG2. Such a drastic reduction in the fluorescent signals could be due to photo-induced electron transfer quenching, which is expected to be most efficient for LG3 since the fluorophore (E) is stacked between two other J-bases. […] With all three ligands, the emission signals were further reduced upon the addition of R11A, but most dramatically with LG2, 60% reduction with LG2 as compared to 35 and 33% with LG1 and LG3, respectively. […]
# as §2
# [2] = test system: double-stranded HP containing a single binding-site; assay: CD of ligand with hairpin containing a single binding-site; settings: 0.1x PBS
# Source text: (§5) FIG. 13. CD spectra of LG2 with the (A) mismatched R11U, (B) single-stranded WS and CS, and (C) double-stranded HP containing a single binding-site, as well as that of (D) LG2P with R11A. CD spectra of RNAs (line) and that of the [RNA+ligand] mixtures (dash).
# as §1, with “examined.” for “examined. The samples were prepared by incubating the pre-annealed RNAs with respective ligands in 0.1× PBS buffer (1 mM NaPi, 13.7 mM NaCl, 0.27 mM KCl; pH 7.4) at 37° C.”
# as §2
# R11A [3] = assay: NMR titration of ligand with R11A; type: binding; settings: R11A 0.1 mM, 0.1x PBS
# Experimental: FIG. 15. NMR titration of LG2 with R11A. The concentration of R11A was 0.1 mM. Aliquots of LG2 at the indicated molar ratios were added to R11A and incubated at 37° C. for 15 min prior to data acquisition. Solvent-exchangeable protons are indicated by dashed lines, and nonexchangeable protons by vertical solid lines.
# To gain insight into the binding mode of LG2, we performed a series of multinuclear and multidimensional NMR experiments with LG2, R11A, and in combination. The samples were prepared in the same 0.1× PBS buffer as before, containing a 9:1 volume ratio of H2O:D2O The NOESY data were collected at 300, 200, and 100 ms mixing times to obtain proton-proton distance, while COSY experiments were performed to map the proton spin-system of each residue. The expectation was that H-bonding interactions between LG2 and R11A would result in line-broadening and downfield chemical shift of the imino proton signals of the canonical G-C/C-G pairs due to base-pair opening, and in an emergence of a new set of imino proton signals due to the formation of H-bonds between ligand and RNA. […] Variable-temperature measurements further supported this chemical shift assignment, showing a gradual decay in peak intensity with increasing temperature while that of the non-exchangeable protons remained fairly constant. Partial assignments of the nucleobase protons were made by NOESY experiments. […]
# R11A [4] = assay: Steady-state fluorescent measurements of ligand with R11A; type: binding; settings: for fluorescent signals of ligand with R11A in presence of pentamidine: 2.5 uM of pentamidine; for reduction of emission signals upon the addition of R11A: 0.1x PBS
# Experimental: as §3
# To further corroborate the UV-Vis and CD findings, we measured the fluorescent signals of ligands with and without RNA targets following an excitation at 330 nm (λmax of E-base). We observed a significant fluorescent quenching of LG3 compared to that of LG1 and LG2. Such a drastic reduction in the fluorescent signals could be due to photo-induced electron transfer quenching, which is expected to be most efficient for LG3 since the fluorophore (E) is stacked between two other J-bases. […] With all three ligands, the emission signals were further reduced upon the addition of R11A, but most dramatically with LG2, 60% reduction with LG2 as compared to 35 and 33% with LG1 and LG3, respectively. We observed a similar fluorescent quenching pattern upon the incubation of LG2 with R11U, [WS+CS], HP, and LG2P with R11A (FIG. 14)—although less dramatic as compared to that of LG2 with R11A. […] To test the hypothesis that the nonspecific binding of ligand to RNA can lead to fluorescent quenching, we incubated the respective RNA targets with pentamidine prior to adding LG2 and vice versa.
# The samples were prepared in 0.1× PBS buffer. All spectra represent an average of at least fifteen scans collected at 100 nm/min rate between 200 and 375 nm, in a 1-cm path-length cuvette at 25° C. CD spectrum from buffer solution was subtracted from the sample spectra, which were then smoothed via a five-point adjacent averaging algorithm. Steady-State fluorescent measurements. All steady-state fluorescence samples were prepared by mixing ligands with RNA at the indicated concentrations in 0.1× PBS buffer, and annealed by incubation at 90° C. for 5 min followed by a gradual cooling to 37° C. The samples were incubated at 37° C. for 1 hr before the measurements. Steady-state fluorescence data were collected at 25° C. by Cary Eclipse Fluorescence Spectrometer. (εex=330 nm, εem=340-600 nm) with slit size.
# HP = assay: Steady-state fluorescent measurements of ligand with HP; type: binding; settings: excitation at 330 nm
# Source text: To further corroborate the UV-Vis and CD findings, we measured the fluorescent signals of ligands with and without RNA targets following an excitation at 330 nm (λmax of E-base). We observed a significant fluorescent quenching of LG3 compared to that of LG1 and LG2. Such a drastic reduction in the fluorescent signals could be due to photo-induced electron transfer quenching, which is expected to be most efficient for LG3 since the fluorophore (E) is stacked between two other J-bases. […] With all three ligands, the emission signals were further reduced upon the addition of R11A, but most dramatically with LG2, 60% reduction with LG2 as compared to 35 and 33% with LG1 and LG3, respectively. We observed a similar fluorescent quenching pattern upon the incubation of LG2 with R11U, [WS+CS], HP, and LG2P with R11A (FIG. 14)—although less dramatic as compared to that of LG2 with R11A. […]
# as §2
# R11U [5] = assay: CD of ligand with mismatched R11U; type: binding; settings: 0.1x PBS
# Source text: as §5
# as §1, with “examined.” for “examined. The samples were prepared by incubating the pre-annealed RNAs with respective ligands in 0.1× PBS buffer (1 mM NaPi, 13.7 mM NaCl, 0.27 mM KCl; pH 7.4) at 37° C.”
# as §2
# [6] = test system: single-stranded WS and CS; assay: CD of ligand with single-stranded RNA targets; type: binding; settings: 0.1x PBS
# Source text: as §5
# as §1, with “examined.” for “examined. The samples were prepared by incubating the pre-annealed RNAs with respective ligands in 0.1× PBS buffer (1 mM NaPi, 13.7 mM NaCl, 0.27 mM KCl; pH 7.4) at 37° C.”
# as §2
# [WS+CS] = Steady-state fluorescent measurements of ligand with single strands; type: binding
# Experimental: as §3, §4, §2
# R11A [7] = assay: CD of ligand with perfect-match rCAG hairpin R11A; type: binding; settings: 0.1x PBS
# Experimental: FIG. 12. CD titration of LG2 with R11A. The concentration of R11A was 0.5 μM and those of LG2 were X: 0, 1.5, 2.5, 3.5, 4.5, 5.5, 6.5, 8.5, and 11.5 μM. After the addition of LG2 to R11A, the mixtures were incubated at 37° C. for 30 min prior to the acquisition of data at 25° C.
# as §5
# A series of model RNA targets were chosen for binding study (FIG. 11). The R11X series comprised 24 rCXG-repeats (FIG. 11 (A)), which, upon adopting a secondary hairpin structure, provided 11 binding sites for ligands (FIG. 11(B)). R11A contained the perfect-match (A-A), while R11U and R11C contained the respective U—U and C—C mismatches for ligand binding. […]
# as §2
substance,measurement,setting,value
H-EFI-Lys-NH2 [LG2],change in CD signals after incubation with mismatched R11C,R11C,no significant differences in the CD signals
same,fluorescent signals of ligand with R11U in presence of pentamidine,R11U [1]; 2.5 uM of pentamidine,fully recovered
same,fluorescent quenching with R11U compared to that of LG2 with R11A,R11U [1]; excitation at 330 nm,less dramatic
same,change in CD signals after incubation with HP,[2],no significant differences in the CD signals
same,new imino proton signals in the 10-20 ppm regimes (H-bond formation between ligand and RNA),R11A [3],did not observe any new imino proton signals
same,imino proton signal of R11A upon the addition of ligand,R11A [3]; 9:1 H2O:D2O,gradually broadened and downfield-shifted
same,fluorescent signals of ligand with R11A in presence of pentamidine,R11A [4],remained suppressed
same,reduction of emission signals upon the addition of R11A,R11A [4]; excitation at 330 nm,60%
same,fluorescent quenching with HP compared to that of LG2 with R11A,HP,less dramatic
same,change in CD signals after incubation with mismatched R11U,R11U [5],no significant differences in the CD signals
same,change in CD signals after incubation with single-stranded WS and CS,[6],no significant differences in the CD signals
same,fluorescent signals of ligand with [WS+CS] in presence of pentamidine,[WS+CS]; 2.5 uM of pentamidine,fully recovered
same,fluorescent quenching with [WS+CS] compared to that of LG2 with R11A,[WS+CS]; excitation at 330 nm,less dramatic
same,"differential in CD amplitude with R11A, among the ligand series",R11A [7]; signals at ~270 nm,largest differential in CD amplitude
H-FIE-Lys-NH2 [LG1],reduction of emission signals upon the addition of R11A,R11A [4]; excitation at 330 nm,35%
H-IEF-Lys-NH2 [LG3],reduction of emission signals upon the addition of R11A,R11A [4]; excitation at 330 nm,33%
H-IPE-Lys-NH2 [LG2P],fluorescent signals of ligand with R11A in presence of pentamidine,R11A [4],fully recovered
same,fluorescent quenching with R11A compared to that of LG2 with R11A,R11A [4]; excitation at 330 nm,less dramatic
same,change in CD signals after incubation with R11A,R11A [7],no significant differences in the CD signals
